{"source": "paper PMC8187479", "about": "“Sugar phosphate activation of the stress sensor eIF2B” (Nature Communications, 2021)", "key": {"[1]": {"target": "T1, eIF2Bα (Homo sapiens, UniProt Q14232)", "T1 construct": "made in house; host or cells: E. coli BL21(DE3)", "T1 sequence (Q14232 1-305)": "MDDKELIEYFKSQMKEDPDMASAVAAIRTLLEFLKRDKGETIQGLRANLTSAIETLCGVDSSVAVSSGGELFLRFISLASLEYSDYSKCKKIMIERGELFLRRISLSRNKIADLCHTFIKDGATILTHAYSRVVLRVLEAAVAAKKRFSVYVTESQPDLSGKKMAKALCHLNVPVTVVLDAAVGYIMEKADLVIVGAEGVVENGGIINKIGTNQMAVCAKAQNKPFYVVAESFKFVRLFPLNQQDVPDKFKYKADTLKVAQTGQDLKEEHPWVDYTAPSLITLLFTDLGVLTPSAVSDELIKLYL", "experiment": "MIDAS (mass spectrometry integrated with equilibrium dialysis) metabolite binding screen", "settings": "eIF2Bα2; 50 μM per metabolite pool; 40 h dialysis at 4 °C", "how_it_was_run": "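Hits called at Storey q < 0.1 on z-scores of PCA-corrected log2 fold change between protein and metabolite chambers, quantified by FIA-MS in triplicate.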"}, "[2]": {"target": "T1, eIF2Bα", "experiment": "Isothermal titration calorimetry, wild-type eIF2Bα", "format": "binding", "protocol": "(§1) Interactions between recombinant protein and sugar phosphates were conducted with a MicroCal PEAQ-ITC (Malvern Panalytical Inc.). Experiments were performed in 25 mM HEPES, 150 mM NaCl, pH 7.5 at 20 °C. The sugar phosphate concentration in the syringe was 1 mM or 1.5 mM, and ~3.5 μL aliquots were injected into cells containing 300 μL eIF2Bα or eIF2B(βδγε) at a concentration of 20–30 μM. The final titration curves were fitted using MicroCal ITC data analysis software, assuming a single binding site per monomer."}, "[3]": {"target": "T1, eIF2Bα", "experiment": "Differential scanning fluorimetry (Protein Thermal Shift), eIF2Bα Tm", "format": "binding", "settings": "for Tm of eIF2Bα: individual replicates Rep 1-4, control without metabolite about 64.1", "protocol": "The effect of metabolite binding on eIF2Bα Tm was assessed using the Protein Thermal Shift assay (Thermo Fisher), following manufacturer’s instructions. Briefly, reaction conditions for each 20 μL reaction were: 1.1 μg (1.5 μM) of eIF2Bα, 5 μl Thermal Shift buffer, 1X Thermal Shift dye, and metabolites in dose response. Reactions were run in 384-well format on a QuantStudio 6 Flex instrument (Thermo Fisher). The resulting melt curves were analyzed using Protein Thermal Shift Software, and eIF2Bα Tms for each condition were calculated by fitting to the Boltzmann function."}, "[4]": {"target": "T2, eIF2B(βδγε) (Homo sapiens, UniProt P49770+Q9UI10)", "T2 construct": "made in house", "experiment": "Isothermal titration calorimetry, eIF2B(βδγε) subcomplex", "format": "binding", "settings": "ITC", "protocol": "as §1"}, "[5]": {"target": "eIF2Bα^V183F (Homo sapiens, UniProt Q14232, V183F)", "sequence (Q14232 whole entry V183F)": "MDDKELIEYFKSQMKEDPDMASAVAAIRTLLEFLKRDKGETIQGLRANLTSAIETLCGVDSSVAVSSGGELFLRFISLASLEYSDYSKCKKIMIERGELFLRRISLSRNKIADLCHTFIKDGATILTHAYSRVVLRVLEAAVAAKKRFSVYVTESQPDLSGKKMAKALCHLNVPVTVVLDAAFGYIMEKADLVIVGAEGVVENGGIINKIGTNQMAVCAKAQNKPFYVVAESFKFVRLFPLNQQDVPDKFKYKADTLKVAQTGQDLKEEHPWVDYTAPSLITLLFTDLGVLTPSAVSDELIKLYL", "sequence (P49770 whole entry partner)": "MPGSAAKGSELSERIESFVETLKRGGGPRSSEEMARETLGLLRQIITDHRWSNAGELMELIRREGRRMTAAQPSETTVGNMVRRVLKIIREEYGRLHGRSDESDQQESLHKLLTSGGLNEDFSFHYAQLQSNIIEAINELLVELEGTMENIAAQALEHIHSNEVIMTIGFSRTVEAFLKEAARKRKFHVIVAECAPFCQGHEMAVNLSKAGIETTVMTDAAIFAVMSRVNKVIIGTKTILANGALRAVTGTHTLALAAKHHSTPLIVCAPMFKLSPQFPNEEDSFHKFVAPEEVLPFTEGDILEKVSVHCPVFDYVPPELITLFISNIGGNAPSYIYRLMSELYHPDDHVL", "sequence (Q9UI10 whole entry partner)": "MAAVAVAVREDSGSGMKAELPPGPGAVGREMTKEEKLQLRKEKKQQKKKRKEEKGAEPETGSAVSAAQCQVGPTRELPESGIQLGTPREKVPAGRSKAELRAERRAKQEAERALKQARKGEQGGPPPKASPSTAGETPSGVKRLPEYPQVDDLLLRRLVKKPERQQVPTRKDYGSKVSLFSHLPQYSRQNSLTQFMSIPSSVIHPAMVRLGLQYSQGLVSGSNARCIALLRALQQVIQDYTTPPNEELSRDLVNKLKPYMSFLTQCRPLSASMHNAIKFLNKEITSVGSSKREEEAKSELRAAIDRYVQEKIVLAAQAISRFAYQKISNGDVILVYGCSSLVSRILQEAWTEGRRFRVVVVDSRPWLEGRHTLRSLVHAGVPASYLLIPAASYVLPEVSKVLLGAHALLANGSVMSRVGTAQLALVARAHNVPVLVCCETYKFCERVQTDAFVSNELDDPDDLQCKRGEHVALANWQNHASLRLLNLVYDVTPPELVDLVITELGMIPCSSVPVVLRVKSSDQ", "sequence (Q9NR50 whole entry partner)": "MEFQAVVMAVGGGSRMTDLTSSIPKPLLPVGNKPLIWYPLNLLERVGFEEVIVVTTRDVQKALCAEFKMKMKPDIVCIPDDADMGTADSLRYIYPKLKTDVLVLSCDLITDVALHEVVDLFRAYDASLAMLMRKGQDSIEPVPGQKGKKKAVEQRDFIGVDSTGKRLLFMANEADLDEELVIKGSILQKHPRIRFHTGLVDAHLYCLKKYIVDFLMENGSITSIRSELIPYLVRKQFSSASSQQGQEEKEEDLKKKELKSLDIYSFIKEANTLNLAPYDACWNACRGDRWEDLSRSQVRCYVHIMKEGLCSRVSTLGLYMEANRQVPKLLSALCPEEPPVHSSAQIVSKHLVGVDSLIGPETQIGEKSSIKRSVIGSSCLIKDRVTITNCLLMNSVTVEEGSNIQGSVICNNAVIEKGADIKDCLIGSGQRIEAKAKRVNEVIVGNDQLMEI", "sequence (Q13144 whole entry partner)": "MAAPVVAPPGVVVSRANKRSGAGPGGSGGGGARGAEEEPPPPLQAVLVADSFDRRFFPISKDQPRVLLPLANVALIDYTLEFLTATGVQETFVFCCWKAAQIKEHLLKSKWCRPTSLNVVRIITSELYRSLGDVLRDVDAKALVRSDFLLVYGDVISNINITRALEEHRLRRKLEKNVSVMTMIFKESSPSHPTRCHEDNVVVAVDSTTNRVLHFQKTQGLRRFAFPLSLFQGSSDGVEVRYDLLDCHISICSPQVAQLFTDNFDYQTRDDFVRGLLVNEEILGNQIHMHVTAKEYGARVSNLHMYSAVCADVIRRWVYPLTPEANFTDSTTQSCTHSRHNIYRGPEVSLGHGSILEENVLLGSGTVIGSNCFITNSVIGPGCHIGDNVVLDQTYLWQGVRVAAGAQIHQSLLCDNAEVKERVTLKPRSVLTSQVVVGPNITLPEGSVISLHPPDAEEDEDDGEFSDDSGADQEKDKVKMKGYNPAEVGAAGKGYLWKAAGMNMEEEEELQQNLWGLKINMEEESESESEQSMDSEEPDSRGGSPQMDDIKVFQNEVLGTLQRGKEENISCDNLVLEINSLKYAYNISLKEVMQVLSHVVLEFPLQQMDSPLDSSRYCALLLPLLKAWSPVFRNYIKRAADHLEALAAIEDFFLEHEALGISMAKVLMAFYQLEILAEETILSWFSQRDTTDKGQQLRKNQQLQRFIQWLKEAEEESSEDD", "experiment": "Size-exclusion chromatography of recombinant eIF2Bα V183F, alone or with eIF2B(βδγε)", "format": "biochemical", "parameters": "made in house; host or cells: E. coli BL21(DE3)", "settings": "SEC, recombinant eIF2B(βδγε) + eIF2Bα V183F; 200 μM F6P", "protocol": "Purified proteins were thawed and centrifuged at 20,000 × g, 10 min, 4 °C to remove any potential precipitate. Concentrations of eIF2B(βδγε) and eIF2Bα were normalized to 2 μM and 2.4 μM, respectively. 0.2 mL of each mixture was injected onto a Superose 6 Increase 10/300 column connected to an AKTA Pure 25 FPLC system (GE Healthcare). The system was run at 0.5 mL/min for 1 h using 25 mM HEPES, 200 mM KCl, 2 mM MgCl2, 1 mM DTT, pH 7.5 as the mobile phase. For conditions with ISRIB, the protein samples and mobile phase were supplemented with 500 nM ISRIB. For conditions with F6P, the protein samples and mobile phase were supplemented with 200 μM F6P. UV280 measurements were obtained directly by the instrument."}}, "note": "Several values for one entry are separate records, joined by “and”; a condition that tells them apart may be missing. Equal values may be shown once.", "data": [{"smiles": "O=C(CO)[C@@H](O)[C@H](O)[C@H](O)COP(=O)(O)O", "note": "[F6P, fructose-6-phosphate]", "values": [{"measurement": "MIDAS result (enrichment in the protein chamber / hit status)", "setting": "[1]", "value": "not a MIDAS hit"}, {"measurement": "Kd", "setting": "[2]; ITC, wild-type eIF2Bα", "value": "9.4 ± 2.3", "unit": "µM"}, {"measurement": "ITC binding isotherm, heat per mole of injectant", "setting": "[2]; molar ratio 0.037369", "value": -7.609, "unit": "kcal/mol"}, {"measurement": "ITC binding isotherm, heat per mole of injectant", "setting": "[2]; molar ratio 0.225339", "value": -7.342, "unit": "kcal/mol"}, {"measurement": "ITC binding isotherm, heat per mole of injectant", "setting": "[2]; molar ratio 0.415168", "value": -6.77, "unit": "kcal/mol"}, {"measurement": "ITC binding isotherm, heat per mole of injectant", "setting": "[2]; molar ratio 0.606855", "value": -6.002, "unit": "kcal/mol"}, {"measurement": "ITC binding isotherm, heat per mole of injectant", "setting": "[2]; molar ratio 0.8004", "value": -5.049, "unit": "kcal/mol"}, {"measurement": "ITC binding isotherm, heat per mole of injectant", "setting": "[2]; molar ratio 0.995804", "value": -4.011, "unit": "kcal/mol"}, {"measurement": "ITC binding isotherm, heat per mole of injectant", "setting": "[2]; molar ratio 1.19307", "value": -3.038, "unit": "kcal/mol"}, {"measurement": "ITC binding isotherm, heat per mole of injectant", "setting": "[2]; molar ratio 1.39219", "value": -2.241, "unit": "kcal/mol"}, {"measurement": "ITC binding isotherm, heat per mole of injectant", "setting": "[2]; molar ratio 1.59317", "value": -1.647, "unit": "kcal/mol"}, {"measurement": "ITC binding isotherm, heat per mole of injectant", "setting": "[2]; molar ratio 1.796", "value": -1.223, "unit": "kcal/mol"}, {"measurement": "ITC binding isotherm, heat per mole of injectant", "setting": "[2]; molar ratio 2.0007", "value": -0.9255, "unit": "kcal/mol"}, {"measurement": "ITC binding isotherm, heat per mole of injectant", "setting": "[2]; molar ratio 2.20725", "value": -0.7147, "unit": "kcal/mol"}, {"measurement": "ITC binding isotherm, heat per mole of injectant", "setting": "[2]; molar ratio 2.41567", "value": -0.5629, "unit": "kcal/mol"}, {"measurement": "ITC binding isotherm, heat per mole of injectant", "setting": "[2]; molar ratio 2.62594", "value": -0.4515, "unit": "kcal/mol"}, {"measurement": "ITC binding isotherm, heat per mole of injectant", "setting": "[2]; molar ratio 2.83807", "value": -0.3681, "unit": "kcal/mol"}, {"measurement": "ITC binding isotherm, heat per mole of injectant", "setting": "[2]; molar ratio 3.05206", "value": -0.3043, "unit": "kcal/mol"}, {"measurement": "ITC binding isotherm, heat per mole of injectant", "setting": "[2]; molar ratio 3.2679", "value": -0.2547, "unit": "kcal/mol"}, {"measurement": "ITC binding isotherm, heat per mole of injectant", "setting": "[2]; molar ratio 3.48561", "value": -0.2155, "unit": "kcal/mol"}, {"measurement": "ITC binding isotherm, heat per mole of injectant", "setting": "[2]; molar ratio 3.70517", "value": -0.184, "unit": "kcal/mol"}, {"measurement": "Tm of eIF2Bα", "setting": "[3]; 0.33 mM metabolite", "value": "64.8334 °C and 64.3598 °C and 65.3978 °C and 64.9639 °C"}, {"measurement": "Tm of eIF2Bα", "setting": "[3]; 1 mM metabolite", "value": "66.8037 °C and 65.9412 °C and 67.2839 °C and 67.2375 °C"}, {"measurement": "Tm of eIF2Bα", "setting": "[3]; 3.3 mM metabolite", "value": "67.7489 °C and 67.4475 °C and 67.8791 °C and 67.7249 °C"}, {"measurement": "Tm of eIF2Bα", "setting": "[3]; 10 mM metabolite", "value": "69.8589 °C and 69.0448 °C and 70.0639 °C and 69.9908 °C"}, {"measurement": "Tm shift of eIF2Bα2", "setting": "[3]; largest shift seen in dose-response", "value": 6, "unit": "°C"}, {"measurement": "interaction with eIF2B(βδγε) subcomplex", "setting": "[4]", "value": "did not interact appreciably"}, {"measurement": "eIF2Bα V183F monomer peak", "setting": "[5]", "value": "significant reduction of the eIF2Bα^V183F monomer peak"}]}]}
